Assay: Dual-phase UHPLC-MS/MS profiling of warfarin and hydroxywarfarins in plasma of patients receiving warfarin
Details: for presence of metabolite in human plasma (in words): four plasma samples of patients receiving warfarin
Experimental: Human plasma samples were processed as described previously (Wikoff et al., Proc Natl Acad Sci, 2009, 106:3698). […] Following equilibration, ice cold 0.2% formic acid in H2O (190 μL) was added to each sample, followed by ice cold 0.2% formic acid in acetonitrile (1000 μL). Samples were allowed to precipitate at 4° C. for 30 minutes, followed by centrifugation (10 min at 16,000 g) in a microcentrifuge. The supernatant (1000 μL) was then transferred to a new vial and dried down in a speed vacuum concentrator. Plasma extracts were resolubilized (40 μL) in mobile phase (55% methanol, 45% H2O with 0.01% formic acid) maintaining a 1:1 ratio with the original volume of plasma.
Standard curves containing all hydroxywarfarins and deuterated internal standards were prepared in potassium phosphate (50 mM, pH 7.4) and analyzed in triplicate with the assay conditions described above. […] The limit of quantification (LOQ) was defined as 5 times the LOD. Metabolite concentrations calculated to be below the limit of quantification were reported as LOQ.
All samples were from males and are referred to as M61, […], […], and M80, respectively. Plasma samples were extracted as described above, and analyzed independently on three separate days.

Row | SMILES | presence of metabolite in human plasma (in words) | most abundant metabolite in plasma (patients M76 and M80) | total plasma concentration compared with S-7-hydroxywarfarin (patients M61 and M75, 10-hydroxywarfarin derived from both R and S-warfarin)
1 | CC(=O)C(O)[C@H](c1ccccc1)c1c(O)c2ccccc2oc1=O (single isomer, unassigned) [R10b] | major observed metabolites | – | –
2 | CC(=O)C(O)[C@H](c1ccccc1)c1c(O)c2ccccc2oc1=O (single isomer, unassigned) [R10a] | major observed metabolites | – | –
3 | CC(=O)C(O)[C@@H](c1ccccc1)c1c(O)c2ccccc2oc1=O (stereo partly drawn) [S10a] | detected but below the limit of quantitation | – | –
4 | CC(=O)C[C@@H](c1ccccc1)c1c(O)c2ccc(O)cc2oc1=O [S7, S-7-hydroxywarfarin] | major observed metabolites | the most abundant metabolite | –
5 | CC(=O)C[C@H](c1ccccc1)c1c(O)c2ccc(O)cc2oc1=O [R7, R-7-hydroxywarfarin] | observed in all four plasma samples | – | –
6 | CC(=O)CC(c1ccccc1)c1c(O)c2cccc(O)c2oc1=O (stereo not drawn) [8-hydroxywarfarin] | below the limit of detection | – | –
7 | CC(=O)CC(c1ccc(O)cc1)c1c(O)c2ccccc2oc1=O (stereo not drawn) [4″-hydroxywarfarin] | observed in some samples, but was below the limit of quantitation | – | –
8 | CC(=O)C(O)C(c1ccccc1)c1c(O)c2ccccc2oc1=O (stereo not drawn) [10-hydroxywarfarin] | – | – | higher than S-7-hydroxywarfarin concentrations

— patent publication US8608967B2, “Multiple stationary phase matrix and uses thereof” (The Board of Trustees of the University of Arkansas, priority 2011, dated 2013)
